Here are results for two molecules from patent US20180200233A1, “COMPOSITIONS FOR PREVENTING CANCERS ASSOCIATED WITH HUMAN PAPILLOMA VIRUSES” (Loma Linda University, priority 2015, published 2018).

The test system of one test is SCC84 (#84) cells. The test is described as follows: MTT cell viability, HPV- HNSCC cell line #84 with TRAIL. It is filed as cell-based. The note with it: 50 ng/ml TRAIL with myricetin 0-200 μM or spinacine 0-100 μM. How it is done: FIGS. 7A-E are graphs showing myricetin and spinacine (5) re-sensitized HPV^+, but not HPV^−, head and neck cancer cell lines to treatment with TRAIL. (FIG. 7A) Both HPV^− and HPV^+ HN cancer cell lines display resistance to TRAIL treatment. HPV^− (#84) (Myricetin—FIG. 7B; Spinacine—FIG. 7C) and HPV^+ (#90) (FIG. 7D; Spinacine—FIG. 7E) head and neck cancer cell lines (2×10^4 cells per well) were seeded into 96-well plates and allowed to incubate overnight, then cells were pre-treated with myricetin (0-200 μM) or spinacine (0-100 μM) for 4 h. […] Cell viability was measured by the MTT assay, and the viability of cells untreated with small molecules was set at 100%. Experiments were performed in triplicate, and error bars indicate the standard deviation.
As shown above, myricetin and spinacine sensitize SiHa cells to TRAIL and chemotherapy drugs. […] Other types of HPV^+ cancer cells were examined, and in particular, head and neck squamous cell carcinoma (HNSCC) cells can also be sensitized in this manner. […]
The extracellular domain of human TRAIL was cloned into a pTriEx expression plasmid containing N-terminal Hisx6 tag. […] All experiments were repeated at least three times (three biological replicates, carried out on different days), with each experimental group measured in triplicate within each of these individual experiments. […]

Another test has as its system SCC 84 (#84) cells. Nature of the test: MTT cell viability, HPV- HNSCC cell line #84 with doxorubicin. Type of test: cell-based. The note with it: 2 μM doxorubicin; small molecules 0-12.5 μM. The procedure:
FIGS. 8A-B includes graphs showing myricetin and spinacine (5) re-sensitized HPV^+, but not HPV^−, HNSCC cell lines to treatment with doxorubicin. One HPV^− (FIG. 8A; #84) and one HPV^+ (FIG. 8B; #90) head and neck cancer cell line (2×10^4 cells per well) were seeded into 96-well plates and allowed to incubate overnight, then cells were pre-treated with myricetin or spinacine (0-12.5 μM) for 4 h. 2 μM of doxorubicin was added and cells were allowed to incubate overnight. Cell viability was measured by MTT assay, and the viability of cells untreated with small molecules was set at 100%. Experiments were performed in triplicate, and error bars indicate the standard deviation.
The results described above indicate that myricetin and spinacine sensitize HPV^+ HNSCC cells to TRAIL-induced apoptosis. To determine whether this sensitization also occurs in the context of chemotherapeutic agents, several HNSCC cell lines were tested for their responses to combination treatments.
The extracellular domain of human TRAIL was cloned into a pTriEx expression plasmid containing N-terminal Hisx6 tag. His-TRAIL was expressed in the E. coli BL-21 pLys strain and purified as previously described. […] All experiments were repeated at least three times (three biological replicates, carried out on different days), with each experimental group measured in triplicate within each of these individual experiments. […]

On to `O=C(O)C1Cc2[nH]cnc2CN1` (stereo not shown) [Compound 5, 4,5,6,7-Tetrahydro-1H-imidazo(4,5-c)pyridine-6-carboxylic acid], for which the “response of HPV- HNSCC cell line #84 to TRAIL (in words)” value in the test with SCC84 (#84) cells is given as “resistant”. Besides, the “response of HPV- HNSCC cell line #84 to doxorubicin (in words)” value in the test with SCC 84 (#84) cells was “resistant”.
On to `O=c1c(O)c(-c2cc(O)c(O)c(O)c2)oc2cc(O)cc(O)c12` [Myricetin, reference compound], for which the “response of HPV- HNSCC cell line #84 to TRAIL (in words)” value with SCC84 (#84) cells was “resistant”. Besides, in the test on SCC 84 (#84) cells, the “response of HPV- HNSCC cell line #84 to doxorubicin (in words)” value is reported as “resistant”.
